Assay results reported in US20260285879A1, “CDK INHIBITOR AND CRYSTAL FORM OF PHARMACEUTICALLY ACCEPTABLE SALT THEREOF, AND USE THEREOF” (priority 2023, published 2026).
Like-named read-outs stand apart in the source and are kept apart here.

How the values were obtained:
Assay type in all cases: physicochemical
[1] = Accelerated stability testing; details: 40° C.±2° C./75%±5% RH
Method: (2) Accelerated Stability Testing
(§1) Packaging: Simulated the commercial packaging (using a pharmaceutical-grade low-density polyethylene bag as the inner packaging and a polyester/aluminum/polyethylene composite bag for pharmaceutical packaging as the outer packaging)
Investigation conditions: 40° C.±2° C./75%±5% RH

[2] = Long-term stability testing; details: 25° C.±2° C./60%±5% RH
Method: (3) Long-Term Stability Testing
as §1
Investigation conditions: 25° C.±2° C./60%±5% RH

[3] = Competition experiment between anhydrates and solvates and solvent activity experiment
[4] = Dynamic vapor sorption (DVS)
Method: 4. Dynamic Vapor Sorption (DVS)
Instrument: TA Instruments Q5000 SA
Detection method: 20 to 50 mg of the sample was placed in a tared sample basket and automatically weighed, and DVS testing was performed according to the parameters in Table 7: Step Time: 60 min; Equilibration Time per RH %: 1 hour; Total Gas Flow Rate: 200 sccm; Gradient mode: 0%-90%-0% humidity variation, with a humidity variation amount of 10% for each gradient level between 0% and 90%, and gradient endpoint was determined by dm/dt<0.01% maintained for 10 minutes.

[5] = Stability test, placed open 7 days (HPLC purity, XRPD); grinding or crushing; details: for remaining at […]: solid state, open, 7 days, read-out: Purity (Peak area %) 7 days
Text: Subsequently, the samples after 7 days were respectively detected by HPLC and XRPD to determine their chemical and physical stabilities.

[6] = Stress testing (high temperature, high humidity, illumination); details: for remaining at […] / remaining at 336 h / remaining at 720 h: read-out: Content
[7] = 60° C., 92.5% RH and 40° C./75% RH for 7 days
[8] = High Humidity (92.5% RH), 7 days
[9] = High Humidity (92.5% RH), 14 days
[10] = High Humidity (92.5% RH), 30 days
[11] = High Temperature (60° C.), 7 days
[12] = High Temperature (60° C.), 14 days
[13] = High Temperature (60° C.), 30 days
[14] = Illumination Testing 45001x ± 5001x, 7 days
[15] = Illumination Testing 45001x ± 5001x, 14 days
[16] = Illumination Testing 45001x ± 5001x, 30 days

For `CC(=O)c1c(C)c2cnc(Nc3ccc4c(c3)OC[C@@H]3CN(C5CCN(C)CC5)CCN43)nc2n(C2CCCC2)c1=O` [listing 1 of 4 here], the “Description Appearance” value ([1]; 0 months) was “Yellow”, the Total impurities ([1]; 0 months) was 0.84% and the crystalline form ([1]; 0 months) was “crystalline”. For the same compound, the loss on drying ([1]; 0 months) was 0.03%, the “Description Appearance” value ([1]; 1 month) was “Yellow” and the Total impurities ([1]; 1 month) was 0.80%. The loss on drying ([1]; 1 month) was 0.04%, the “Description Appearance” value ([1]; 2 months) was “Yellow” and the Total impurities ([1]; 2 months) was 0.82%. For the same compound, the loss on drying ([1]; 2 months) was 0.02%, the “Description Appearance” value ([1]; 3 months) was “Yellow” and the Total impurities ([1]; 3 months) was 0.85%. For the same compound, the crystalline form ([1]; 3 months) was “Unchanged”, the loss on drying ([1]; 3 months) was 0.02% and the “Description Appearance” value ([1]; 6 months) was “Yellow”. For the same compound, the Total impurities ([1]; 6 months) was 0.77%, the crystalline form ([1]; 6 months) was “Unchanged” and the loss on drying ([1]; 6 months) was 0.08%. For the same compound, the remaining at 720 h ([1]; solid, 75% rh storage, 1 month, read-out: Measured content) was 100%, the remaining at 1440 h ([1]; solid, 75% rh storage, 2 months, read-out: Measured content) was 101% and the remaining at 2160 h ([1]; solid, 75% rh storage, 3 months, read-out: Measured content) was 101%. For the same compound, the remaining at 4320 h ([1]; solid, 75% rh storage, 6 months, read-out: Measured content) was 101%, the “Description Appearance” value ([2]; 0 months) was “Yellow” and the Total impurities ([2]; 0 months) was 0.84%. For the same compound, the crystalline form ([2]; 0 months) was “crystalline”, the loss on drying ([2]; 0 months) was 0.03% and the “Description Appearance” value ([2]; 3 months) was “Yellow solid”. The Total impurities ([2]; 3 months) was 0.89%, the crystalline form ([2]; 3 months) was “Unchanged” and the loss on drying ([2]; 3 months) was 0.02%. The “Description Appearance” value ([2]; 6 months) was “Yellow solid”, the Total impurities ([2]; 6 months) was 0.75% and the crystalline form ([2]; 6 months) was “Unchanged”. The loss on drying ([2]; 6 months) was 0.05%, the “Description Appearance” value ([2]; 9 months) was “Yellow solid” and the Total impurities ([2]; 9 months) was 0.73%. The crystalline form ([2]; 9 months) was “Unchanged”, the loss on drying ([2]; 9 months) was 0.05% and the “Description Appearance” value ([2]; 12 months) was “Yellow solid”. For the same compound, the Total impurities ([2]; 12 months) was 0.78%, the crystalline form ([2]; 12 months) was “Unchanged” and the loss on drying ([2]; 12 months) was 0.05%. For the same compound, the “Description Appearance” value ([2]; 18 months) was “Yellow solid”, the Total impurities ([2]; 18 months) was 0.71% and the crystalline form ([2]; 18 months) was “Unchanged”. For the same compound, the loss on drying ([2]; 18 months) was 0.03%, the remaining at 2160 h ([2]; solid, 60% rh storage, 3 months, read-out: Measured content) was 101% and the remaining at 4320 h ([2]; solid, 60% rh storage, 6 months, read-out: Measured content) was 101%. The remaining at 6480 h ([2]; solid, 60% rh storage, 9 months, read-out: Measured content) was 99.6%, the remaining at 8640 h ([2]; solid, 60% rh storage, 12 months, read-out: Measured content) was 101% and the remaining at 12960 h ([2]; solid, 60% rh storage, 18 months, read-out: Measured content) was 98.7%.

For `CC(=O)c1c(C)c2cnc(Nc3ccc4c(c3)OC[C@@H]3CN(C5CCN(C)CC5)CCN43)nc2n(C2CCCC2)c1=O` [listing 2 of 4 here], the “Test Results (crystalline form by XRPD)” value ([3]; solvent activity experiment, 20% Trifluoroethanol (v/v)) was “crystalline form A-I”, the “Test Results (crystalline form by XRPD)” value ([3]; solvent activity experiment, 50% Trifluoroethanol (v/v)) was “crystalline form A-I” and the “Test Results (crystalline form by XRPD)” value ([3]; solvent activity experiment, 80% Trifluoroethanol (v/v)) was “crystalline form A-II”.

With `CC(=O)c1c(C)c2cnc(Nc3ccc4c(c3)OC[C@@H]3CN(C5CCN(C)CC5)CCN43)nc2n(C2CCCC2)c1=O` [listing 3 of 4 here] the “Test Results (crystalline form by XRPD)” value ([3]; solvent activity experiment, 20% Dimethyl sulfoxide (v/v)) was “crystalline form A-I”, the “Test Results (crystalline form by XRPD)” value ([3]; solvent activity experiment, 50% Dimethyl sulfoxide (v/v)) was “crystalline form A-I” and the “Test Results (crystalline form by XRPD)” value ([3]; solvent activity experiment, 80% Dimethyl sulfoxide (v/v)) was “crystalline form A-I”.

With `CC(=O)c1c(C)c2cnc(Nc3ccc4c(c3)OC[C@@H]3CN(C5CCN(C)CC5)CCN43)nc2n(C2CCCC2)c1=O` [listing 4 of 4 here] the “Test Results (crystalline form by XRPD)” value ([3]; competition experiment, n-Butanol, room temperature) was “crystalline form A-I” and the “Test Results (crystalline form by XRPD)” value ([3]; competition experiment, n-Butanol/Anisole (v:v = 1:1), room temperature) was “crystalline form A-I”.

In the case of `CC(=O)c1c(C)c2cnc(Nc3ccc4c(c3)OC[C@@H]3CN(C5CCN(C)CC5)CCN43)nc2n(C2CCCC2)c1=O` [crystalline form A-I], the “hygroscopicity (DVS)” value ([4]; 0%-90% RH) is reported as “non-hygroscopic”, the “weight change (DVS)” value ([4]; across 0%-90% RH) is reported as “approximately 0.17%” and the “Purity (Peak area %) 0 day” value ([5]; 0 day) is reported as 99.16 Peak area %. The “chemical stability (HPLC)” value [5, 7] was “chemically stable”, the “crystalline form by XRPD after 7 days under the three conditions” value [5, 7] was “remained unchanged” and the “crystalline form after grinding or crushing” value ([5]; grinding or crushing) was “remained unchanged”. The remaining at […] ([5]; 40° C./75% RH) was 99.2%, the remaining at […] ([5]; 60° C.) was 99.2% and the remaining at […] ([5]; 92.5% RH) was 99.2%. The “Description Appearance” value ([6]; 0 Day) was “Yellow”, the crystalline form ([6]; 0 Day) was “crystalline” and the “Description Appearance” value [6, 8] was “Yellow”. For the same compound, the remaining at […] [6, 8] was 100%, the “Description Appearance” value [6, 9] was “Yellow” and the remaining at 336 h [6, 9] was 99.6%. For the same compound, the “Description Appearance” value [6, 10] was “Yellow”, the remaining at 720 h [6, 10] was 101% and the “Description Appearance” value [6, 11] was “Yellow”. The remaining at […] [6, 11] was 100%, the “Description Appearance” value [6, 12] was “Yellow” and the remaining at 336 h [6, 12] was 101%. For the same compound, the “Description Appearance” value [6, 13] was “Yellow”, the remaining at 720 h [6, 13] was 100% and the “Description Appearance” value [6, 14] was “Yellow”. For the same compound, the Total impurities [6, 14] was 0.76%, the loss on drying [6, 14] was 0.07% and the remaining at […] [6, 14] was 101%. For the same compound, the “Description Appearance” value [6, 15] was “Yellow”, the Total impurities [6, 15] was 0.79% and the loss on drying [6, 15] was 0.06%. For the same compound, the remaining at 336 h [6, 15] was 100%, the “Description Appearance” value [6, 16] was “Yellow” and the Total impurities [6, 16] was 0.84%. The crystalline form [6, 16] was “Unchanged”, the loss on drying [6, 16] was 0.07% and the remaining at 720 h [6, 16] was 100%. The “change in the description” value ([6]; all stress test conditions) was “no significant change”, the “change in the hygroscopic weight gain” value ([6]; high-humidity conditions) was “no significant change” and the “relevant substances compared with 0 month” value ([6]; high-humidity conditions) was “remained unchanged”. For the same compound, the “change in relevant substances” value ([6]; high-temperature conditions) was “no significant change”.

With `CC(=O)c1c(C)c2cnc(Nc3ccc4c(c3)OC[C@@H]3CN(C5CCN(C)CC5)CCN43)nc2n(C2CCCC2)c1=O` [crystalline form F] the “XRPD pattern / crystalline form after the DVS test” value ([4]; after DVS test) was “did not change” and the “moisture absorption (DVS)” value ([4]; at 80% RH) was “approximately 3.8%”.
